Assay results: patent US10005768B2, “Carboxamide derivatives and use thereof” (Purdue Pharma L.P., priority 2013, dated 2018)

Biological target: human Nav1.7 (Homo sapiens (Human), UniProt Q15858)
Test: FLIPR sodium dye assay (CoroNa Green AM Na+ dye, primary fluorescence assay)
Type: cell-based
Conditions: recombinant Nav1.7/HEK293 cells
Procedure: In vitro assays were performed in a recombinant cell line expressing cDNA encoding the alpha subunit (Nav1.7, SCN9a, PN1, NE) of human Nav1.7 (Accession No. NM_002977). The cell line was provided by investigators at Yale University (Cummins et al, J. Neurosci. 18(23): 9607-9619 (1998)). For dominant selection of the Nav1.7-expressing clones, the expression plasmid co-expressed the neomycin resistance gene. The cell line was constructed in the human embryonic kidney cell line, HEK293, under the influence of the CMV […] promoter, and stable clones were selected using limiting dilution cloning and antibiotic selection using the neomycin analogue, G418. Recombinant beta and gamma subunits were not introduced into this cell line. Additional cell lines expressing recombinant Nav1.7 cloned from other species can also be used, alone or in combination with various beta subunits, gamma subunits or chaperones.
Unless otherwise noted, cell culture reagents were purchased from Mediatech of Herndon, Va. The recombinant Nav1.7/HEK293 cells were routinely cultured in growth medium consisting of Dulbecco's […] essential medium containing 10% fetal bovine serum (FBS, Hyclone, Thermo Fisher Scientific, Logan, Utah), 100 U/mL penicillin, 100 μg/mL streptomycin, 2-4 mM L-glutamine, and […] G418. For natural, non-recombinant cell lines, the selective antibiotic was omitted, and additional media formulations can be applied as needed.
The final buffer consisted of 20 mM Hepes, pH 7.3, 1.261 mM CaCl2, 0.493 mM MgCl2, 0.407 mM Mg(SO)4, 5.33 mM KCl, 0.441 mM KH2PO4, 137 mM NaCl, 0.336 mM Na2HPO4 and […] D-glucose (Hanks et al., Proc. Soc. Exp. Biol. Med. 71:196 (1949)), and the simple formulation was typically the basic buffer throughout the assay (i.e., all wash and addition steps).
The fluorescence indicator used in the primary fluorescence assay was the cell permeant version of CoroNa™ Green (Invitrogen, Molecular Probes, Eugene, Oreg.), a dye that emits light in the fluorescence range (Harootunian et al., J. Biol. Chem. 264(32):19458-19467 (1989)). The intensity of this emission, but not the wavelength range, is increased when the dye is exposed to Na^+ ions, which it can bind with partial selectivity. Cells expressing Nav1.7 or other sodium channels were loaded with the CoroNa™ Green dye immediately in advance of the fluorescence assay, and then, after agonist stimulation, the mobilization of Na^+ ions was detected as the Na^+ ions flowed from the extracellular fluid into the cytoplasm through the activated sodium channel pores. The dye was stored in the dark as a lyophilized powder, and then an aliquot was dissolved immediately before the cell loading procedure, according to the instructions of the manufacturer, to a stock concentration of 10 mM in DMSO. It was then diluted in the assay buffer to a 4× concentrated working solution, so that the final concentration of dye in the cell loading buffer was 5 μM.
In the fluorescence assays, two agonists were used in combination, namely 1) veratridine; and 2) the venom from the yellow scorpion, Leiurus quinquestriatus hebraeus. Veratridine is an alkaloid small molecule that facilitates the capture of channel openings by inhibiting inactivation, and the scorpion venom is a natural preparation that includes peptide toxins selective for different subsets of voltage-gated sodium channels. These scorpion toxins inhibit the fast inactivation of their cognate target channels. Stock solutions of the agonists were prepared to 40 mM in DMSO (veratridine) and 1 mg/mL in dH2O (scorpion venom), and then diluted to make a 4× or 2× stock (depending on the particular assay) in assay buffer, the final concentration being 100 μM (veratridine) and 10 μg/mL (scorpion venom). Both of the agonists were purchased from Sigma Aldrich, St. Louis, Mo.
Test compounds were dissolved in DMSO to yield 10 mM stock solutions. […]

Chain of human Nav1.7 (Q15858 other isoform, or with tags, fused parts or gaps): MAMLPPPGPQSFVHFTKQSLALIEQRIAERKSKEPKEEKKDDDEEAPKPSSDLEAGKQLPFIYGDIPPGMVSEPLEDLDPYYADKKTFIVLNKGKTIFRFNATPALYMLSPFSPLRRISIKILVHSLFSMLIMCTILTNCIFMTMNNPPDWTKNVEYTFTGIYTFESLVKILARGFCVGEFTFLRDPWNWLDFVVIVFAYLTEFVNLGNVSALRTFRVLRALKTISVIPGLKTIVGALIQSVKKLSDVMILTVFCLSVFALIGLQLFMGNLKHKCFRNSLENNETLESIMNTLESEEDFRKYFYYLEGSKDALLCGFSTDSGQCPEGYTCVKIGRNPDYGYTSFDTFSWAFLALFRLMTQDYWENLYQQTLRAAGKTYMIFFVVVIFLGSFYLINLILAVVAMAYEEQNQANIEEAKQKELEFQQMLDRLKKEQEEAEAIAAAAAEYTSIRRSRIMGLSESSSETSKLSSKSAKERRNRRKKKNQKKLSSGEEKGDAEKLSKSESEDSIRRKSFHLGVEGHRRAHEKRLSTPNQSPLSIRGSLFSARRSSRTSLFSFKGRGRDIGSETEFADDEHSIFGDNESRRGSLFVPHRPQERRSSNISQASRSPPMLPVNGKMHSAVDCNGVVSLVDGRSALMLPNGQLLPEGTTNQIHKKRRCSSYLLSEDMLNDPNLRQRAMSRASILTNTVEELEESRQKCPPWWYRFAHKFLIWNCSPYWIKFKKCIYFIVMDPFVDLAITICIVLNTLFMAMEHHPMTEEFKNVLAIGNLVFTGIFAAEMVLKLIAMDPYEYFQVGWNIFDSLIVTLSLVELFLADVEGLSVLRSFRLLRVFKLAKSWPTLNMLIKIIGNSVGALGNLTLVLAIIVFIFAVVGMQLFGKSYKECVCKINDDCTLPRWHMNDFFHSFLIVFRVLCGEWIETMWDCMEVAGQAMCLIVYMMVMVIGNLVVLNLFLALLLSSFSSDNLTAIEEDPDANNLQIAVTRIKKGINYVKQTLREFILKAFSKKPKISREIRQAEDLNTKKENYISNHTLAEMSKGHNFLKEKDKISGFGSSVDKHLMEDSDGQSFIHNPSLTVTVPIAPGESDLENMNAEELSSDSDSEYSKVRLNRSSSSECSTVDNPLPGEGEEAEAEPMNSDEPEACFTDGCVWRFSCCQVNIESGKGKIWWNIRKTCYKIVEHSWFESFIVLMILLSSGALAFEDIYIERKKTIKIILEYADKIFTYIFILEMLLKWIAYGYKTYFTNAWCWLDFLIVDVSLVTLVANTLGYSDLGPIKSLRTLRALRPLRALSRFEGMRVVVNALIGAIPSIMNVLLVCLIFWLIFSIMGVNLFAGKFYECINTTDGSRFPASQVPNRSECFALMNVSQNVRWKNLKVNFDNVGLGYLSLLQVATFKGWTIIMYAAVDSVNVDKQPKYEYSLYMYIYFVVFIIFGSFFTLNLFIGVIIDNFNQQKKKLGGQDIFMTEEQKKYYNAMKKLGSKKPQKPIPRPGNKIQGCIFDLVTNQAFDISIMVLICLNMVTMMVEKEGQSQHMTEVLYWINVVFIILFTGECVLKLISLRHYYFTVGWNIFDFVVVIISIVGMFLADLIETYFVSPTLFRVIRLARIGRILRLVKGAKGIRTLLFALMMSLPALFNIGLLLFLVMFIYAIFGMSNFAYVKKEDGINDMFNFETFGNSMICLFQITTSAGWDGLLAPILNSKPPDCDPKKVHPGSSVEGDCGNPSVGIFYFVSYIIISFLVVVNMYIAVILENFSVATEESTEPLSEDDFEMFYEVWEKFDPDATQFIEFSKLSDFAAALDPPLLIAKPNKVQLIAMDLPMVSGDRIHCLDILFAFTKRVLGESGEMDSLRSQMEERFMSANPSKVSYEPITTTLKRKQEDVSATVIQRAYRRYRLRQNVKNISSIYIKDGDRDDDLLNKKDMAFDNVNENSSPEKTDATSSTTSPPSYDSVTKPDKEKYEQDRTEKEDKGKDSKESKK

Row | IC50 [µM] | SMILES
1 | 0.147 ± 0.016 | N#Cc1ccc(Oc2ccc(-c3cccc(C(N)=O)n3)cc2)c(-c2ccncc2)c1 [compound 15, 6-(4-(4-cyano-2-(pyridin-4-yl)phenoxy)phenyl)picolinamide]
2 | 0.104 ± 0.02 | N#Cc1ccc(Oc2ccc(-c3cccc(C(N)=O)n3)cc2)c(-c2cccnc2)c1 [compound 16, 6-(4-(4-cyano-2-(pyridin-3-yl)phenoxy)phenyl)picolinamide]
3 | 0.067 ± 0.019 | Cn1cccc1-c1cc(C#N)ccc1Oc1ccc(-c2cccc(C(N)=O)n2)cc1 [compound 17, 6-(4-(4-cyano-2-(1-methyl-1H-pyrrol-2-yl)phenoxy)phenyl)-picolinamide]
4 | 0.426 ± 0.084 | N#Cc1ccc(Oc2ccc(-c3cccc(C(N)=O)n3)cc2)c(-c2ccc(N)cc2)c1 [compound 18, 6-(4-((4′-amino-5-cyano-[1,1′-biphenyl]-2-yl)oxy)phenyl)-picolinamide]
5 | 0.337 ± 0.006 | N#Cc1ccc(Oc2ccc(-c3cccc(C(N)=O)n3)cc2)c(-c2ccsc2)c1 [compound 19, 6-(4-(4-cyano-2-(thiophen-3-yl)phenoxy)phenyl)picolinamide]
6 | 0.124 ± 0.016 | COc1ccc(-c2cc(C#N)ccc2Oc2ccc(-c3cccc(C(N)=O)n3)cc2)cn1 [compound 20, 6-(4-(4-cyano-2-(6-methoxypyridin-3-yl)phenoxy)phenyl)picolinamide]
7 | 0.564 ± 0.035 | Cn1cc(-c2cc(C#N)ccc2Oc2ccc(-c3cccc(C(N)=O)n3)cc2)cn1 [compound 21, 6-(4-(4-cyano-2-(1-methyl-1H-pyrazol-4-yl)phenoxy)phenyl)-picolinamide]
8 | > 20 | N#Cc1ccc(Oc2ccc(-c3cccc(C(N)=O)n3)cc2)c(-c2ccc(O)nc2)c1 [compound 23, 6-(4-(4-cyano-2-(6-hydroxypyridin-3-yl)phenoxy)phenyl)picolinamide]

The remaining lines, values behind:

Row | SMILES | IC50 [µM]
9 | Cn1nccc1-c1cc(C#N)ccc1Oc1ccc(-c2cccc(C(N)=O)n2)cc1 [compound 22, 6-(4-(4-cyano-2-(1-methyl-1H-pyrazol-5-yl)phenoxy)phenyl) picolinamide] | 0.285 ± 0.009
10 | COc1ncccc1-c1cc(C#N)ccc1Oc1ccc(-c2cccc(C(N)=O)n2)cc1 [compound 24, 6-(4-(4-cyano-2-(2-methoxypyridin-3-yl)phenoxy)phenyl)picolinamide] | 0.152 ± 0.031
11 | N#Cc1ccc(Oc2ccc(-c3cccc(C(N)=O)n3)cc2)cc1-c1ccncc1 [compound 26, 6-(4-(4-cyano-3-(pyridin-4-yl)phenoxy)phenyl)picolinamide] | 0.054 ± 0.005
12 | N#Cc1ccc(Oc2ccc(-c3cccc(C(N)=O)n3)cc2)cc1-c1cccnc1 [compound 27, 6-(4-(4-cyano-3-(pyridin-3-yl)phenoxy)phenyl)picolinamide] | 0.549 ± 0.085
13 | NC(=O)c1cccc(-c2ccc(Oc3ccc(C(F)(F)F)cc3-c3ccncc3)cc2)n1 [compound 28, 6-(4-(2-(pyridin-4-yl)-4-(trifluoromethyl)phenoxy)phenyl) picolinamide] | 0.101 ± 0.021
14 | NC(=O)c1cccc(-c2ccc(Oc3ccc(C(F)(F)F)cc3-c3cccnc3)cc2)n1 [compound 29, 6-(4-(2-(pyridin-3-yl)-4-(trifluoromethyl)phenoxy)phenyl) picolinamide] | 0.117 ± 0.036
15 | NC(=O)c1cccc(-c2ccc(Oc3ccc(C(F)(F)F)cc3CN3CCCC3)cc2)n1 [compound 30, 6-(4-(2-(pyrrolidin-1-ylmethyl)-4-(trifluoromethyl)phenoxy)phenyl) picolinamide] | 0.049 ± 0.003
16 | CN(C)CCNCc1cc(C(F)(F)F)ccc1Oc1ccc(-c2cccc(C(N)=O)n2)cc1 [compound 31, 6-(4-(2-(((2-(dimethylamino)ethyl)amino)methyl)-4-(trifluoromethyl)phenoxy)phenyl) picolinamide] | 2.14 ± 0.432
17 | NC(=O)c1cccc(-c2ccc(Oc3ccc(C(F)(F)F)cc3CNCCc3ccc(S(N)(=O)=O)cc3)cc2)n1 [compound 32, 6-(4-(2-(((4-sulfamoylphenethyl)-amino)methyl)-4-(trifluoro-methyl)phenoxy)phenyl)picolin-amide] | 3.05 ± 0.942
